Reference: patent US10370727B2, “Point mutations in TRK inhibitor-resistant cancer and methods relating to the same” (Loxo Oncology, Inc., priority 2015, dated 2019)
Counter-ions that a name gives are not always drawn.

How the values were obtained:
[1] = test system: cells expressing a TRIM24-NTRK2 fusion protein including TrkB inhibitor resistance mutations; assay: Proliferation (percent of control) of cells expressing mutant TRIM24-NTRK2 fusion; type: cell-based; details: Example 3; TrkB substitutions V601G, G623S, R630K
Method: N-ethyl-N-nitrosourea (ENU)-exposed Ba/F3-MPRIP-NTRK1 and Ba/F3-TRIM24-NTRK2 cells were used to generate mutations permitting growth of Ba/F3 cells in the absence of IL-3 despite the presence of 100, 250, or 500 nM (S)—N-(5-((R)-2-(2,5-difluorophenyl)pyrrolidin-1-yl)pyrazolo[1,5-a]pyrimidin-3-yl)-3-hydroxypyrrolidine-1-c[…]. The Mutations identified by genomic DNA sequencing in the initial screen were validated by cloning the mutation-bearing cDNAs back into Ba/F3 cells to evaluate their sensitivity to (S)—N-(5-((R)-2-(2,5-DIFLUOROPHENYL)PYRROLIDIN-1-YL)PYRAZOLO[1,5-A]PYRIMIDIN-3-YL)-3-HYDROXYPYRROLIDINE-1-C[…] using both proliferation assays and TRK phosphorylation by immunoblot analyses. Modeling of the mutations was performed by mapping of the amino acid substitutions onto a drug-bound TRK kinase domain crystal structure.
Ba/F3 cells stably expressing MPRIP-NTRK1 or TRIM24-NTRK2 were treated overnight with […] N-Ethyl-N-nitrosourea (ENU), pelleted, resuspended in fresh media, and distributed in 96-well plates in 200 μL media supplemented with (S)—N-(5-((R)-2-(2,5-DIFLUOROPHENYL)PYRROLIDIN-1-YL)PYRAZOLO[1,5-A]PYRIMIDIN-3-YL)-3-HYDROXYPYRROLIDINE-1-C[…] (100, 250, and 500 nM). […]

[2] = test system: cells expressing a MPRIP-NTRK1 fusion protein including Trk inhibitor resistance mutations; assay: Proliferation (percent of control) of cells expressing mutant MPRIP-NTRK1 fusion; type: cell-based; details: TrkA substitutions V573M, F589L, G667S
Method: In the genetic screen cDNAs harboring the MPRIP-NTRK1 oncogene were introduced into Ba/F3 cells. The Ba/F3 cells were treated with the mutagen, 100 μg/mL N-ethyl-N-nitrosourea (ENU; Sigma Aldrich, St. Louis, Mo.), overnight. […] At confluence, the cells were collected and genomic DNA was extracted. The NTRK1 kinase region was amplified and the PCR products were purified and sequenced. A plasmids encoding MPRIP-NTRK1 mutations were generated with QuickChange site-directed mutagenesis according to the manufacturer's instructions using a sequence encoding a wildtype MPRIP-NTRK1 fusion protein as a template. Each mutation was confirmed by DNA sequencing. The Ba/F3 cells and NIH353 cells expressing MPRIP-NTRK1 mutants were generated by infecting Ba/F3 and NIH353 parental cells with lentivirus encoding the mutation MPRIP-NTRK1 fusion proteins, followed by selection with puromycin.

[3] = test system: TRKA and ERK1/2 activation in NIH3T3 cells expressing MPRIP-NTRK1 fusions; assay: Western blot analysis of NIH3T3 cells expressing MPRIP-NTRK1 fusions; type: cell-based; details: 2 hours
[4] = test system: TRKB and ERK1/2 activation in NIH3T3 cells expressing TRIM24-NTRK2 fusions; assay: Western blot analysis of NIH3T3 cells expressing TRIM24-NTRK2 fusions; type: cell-based; details: 2 hours
Method: FIG. 11 is a photograph of a Western blot analysis of NIH3T3 cells treated with the indicated concentrations of (S)—N-(5-((R)-2-(2,5-difluorophenyl)pyrrolidin-1-yl)pyrazolo[1,5-a]pyrimidin-3-yl)-3-hydroxypyrrolidine-1-c[…] (Cmpd A) for 2 hours.
Ba/F3 cells stably expressing MPRIP-NTRK1 or TRIM24-NTRK2 were treated overnight with […] N-Ethyl-N-nitrosourea (ENU), pelleted, resuspended in fresh media, and distributed in 96-well plates in 200 μL media supplemented with (S)—N-(5-((R)-2-(2,5-DIFLUOROPHENYL)PYRROLIDIN-1-YL)PYRAZOLO[1,5-A]PYRIMIDIN-3-YL)-3-HYDROXYPYRROLIDINE-1-C[…] (100, 250, and 500 nM). […] The contents of outgrown wells were expanded in 12-well plates in media supplemented with (S)—N-(5-((R)-2-(2,5-DIFLUOROPHENYL)PYRROLIDIN-1-YL)PYRAZOLO[1,5-A]PYRIMIDIN-3-YL)-3-HYDROXYPYRROLIDINE-1-C[…] at the same concentration as in the initial 96-well plate. At confluence, cells were collected and genomic DNA was extracted. The NTRK1 and NTRK2 kinase region was PCR-amplified and sequenced. Plasmids encoding MPRIP-NTRK1 and TRIM24-NTRK2 mutations were generated with QuickChange site-directed mutagenesis and confirmed by DNA sequencing. Ba/F3 cells and NIH3T3 cells expressing MPRIP-NTRK1 mutants were generated by infecting Ba/F3 and NIH3T3 parental cells with lentivirus encoding MPRIP-NTRK1 mutation followed by selection with puromycin.

TrkA WT = TrkA WT (Homo sapiens, UniProt P04629); assay: Trk enzyme assay ([33P] incorporation into poly-EAY); type: biochemical; details: wild-type TrkA enzyme; 22° C., 60 minutes
Method: (§1) The assays were conducted in 96-well polypropylene v-bottom microtitre plates (Corning, Costar® 3363) in a total volume of 50 μL. […] The radiolabeled product was then captured on glass fiber filter plates (PerkinElmer, Unifilter®-96, GF/B®) and washed with 5% phosphoric acid to remove unbound radiolabel using a Tomtec MACH III Harvester 96®. After adding 35 μL/well of Bio-Safe II™ liquid scintillation cocktail (Research Products International), the plates were counted in a TopCount NXT (PerkinElmer) using a counting time of 30 s/well. The activity at each concentration of compound was expressed as percent of control (POC) and plotted versus compound concentration.

TrkA V573M = TrkA V573M (Homo sapiens, UniProt P04629, V573M); assay: as above; type: biochemical; details: mutant TrkA V573M enzyme; 22° C., 60 minutes
Method: (§2) The activity of the various Trk compounds exemplified in Table 6 was determined by monitoring the incorporation of [^33P]PO4 from [γ-^33P]ATP into poly-EAY (Sigma-Aldrich, P3899).
as §1

TrkC G623R = TrkC G623R (Homo sapiens, UniProt Q16288, G623R/S70N); assay: as above; type: biochemical; details: mutant TrkC G623R enzyme; 22° C., 60 minutes
Method: The radiolabeled product was then captured on glass fiber filter plates (PerkinElmer, Unifilter®-96, GF/B®) and washed with 5% phosphoric acid to remove unbound radiolabel using a Tomtec MACH III Harvester 96®. After adding 35 μL/well of Bio-Safe II™ liquid scintillation cocktail (Research Products International), the plates were counted in a TopCount NXT (PerkinElmer) using a counting time of 30 s/well. The activity at each concentration of compound was expressed as percent of control (POC) and plotted versus compound concentration.

TrkB WT = TrkB WT (Homo sapiens, UniProt Q16620); assay: as above; type: biochemical; details: wild-type TrkB enzyme; 22° C., 60 minutes
Method: as §1

TrkA G595R = TrkA G595R (Homo sapiens, UniProt P04629, G595R); assay: as above; type: biochemical; details: mutant TrkA G595R enzyme; 22° C., 60 minutes
Method: as §2, §1

TrkA G667S = TrkA G667S (Homo sapiens, UniProt P04629, G667S); assay: as above; type: biochemical; details: mutant TrkA G667S enzyme; 22° C., 60 minutes
Method: as §2, §1

TrkA G667C = TrkA G667C (Homo sapiens, UniProt P04629, G667C); assay: as above; type: biochemical; details: mutant TrkA G667C enzyme; 22° C., 60 minutes
Method: as §2, §1

TrkC F617L = TrkC F617L (Homo sapiens, UniProt Q16288, F617L/S70N); assay: as above; type: biochemical; details: mutant TrkC F617L enzyme; 22° C., 60 minutes
Method: as §1

TrkB G623R = TrkB G623R (Homo sapiens, UniProt Q16620, G623R); assay: as above; type: biochemical; details: mutant TrkB G623R enzyme; 22° C., 60 minutes
Method: as §1

TrkA F589L = TrkA F589L (Homo sapiens, UniProt P04629, F589L); assay: as above; type: biochemical; details: mutant TrkA F589L enzyme; 22° C., 60 minutes
Method: as §2, §1

TrkC WT = TrkC WT (Homo sapiens, UniProt Q16288, S70N); assay: as above; type: biochemical; details: wild-type TrkC enzyme; 22° C., 60 minutes
TrkC WT, sequence (Q16288 32-839 S70N): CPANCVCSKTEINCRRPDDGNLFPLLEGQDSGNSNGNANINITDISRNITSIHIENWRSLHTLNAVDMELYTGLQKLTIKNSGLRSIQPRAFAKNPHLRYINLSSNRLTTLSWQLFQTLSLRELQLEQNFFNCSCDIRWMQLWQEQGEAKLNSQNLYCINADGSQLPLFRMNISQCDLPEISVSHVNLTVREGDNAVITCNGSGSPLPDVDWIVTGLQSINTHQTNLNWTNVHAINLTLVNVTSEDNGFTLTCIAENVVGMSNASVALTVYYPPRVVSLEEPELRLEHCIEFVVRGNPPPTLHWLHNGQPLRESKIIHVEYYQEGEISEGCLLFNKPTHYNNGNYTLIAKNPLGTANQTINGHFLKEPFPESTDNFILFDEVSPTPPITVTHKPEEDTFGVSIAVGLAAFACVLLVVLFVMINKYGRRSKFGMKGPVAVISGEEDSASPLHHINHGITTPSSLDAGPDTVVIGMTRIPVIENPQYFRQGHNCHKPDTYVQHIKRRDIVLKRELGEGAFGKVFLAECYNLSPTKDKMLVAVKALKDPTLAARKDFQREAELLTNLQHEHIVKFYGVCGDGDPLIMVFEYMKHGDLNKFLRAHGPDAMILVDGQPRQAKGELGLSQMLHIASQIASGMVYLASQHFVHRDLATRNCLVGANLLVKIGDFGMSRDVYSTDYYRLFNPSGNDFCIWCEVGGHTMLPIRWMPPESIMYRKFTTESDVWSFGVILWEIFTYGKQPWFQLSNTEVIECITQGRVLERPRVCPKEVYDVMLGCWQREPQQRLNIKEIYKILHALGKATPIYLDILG
Method: as §1

TrkA G667C, sequence (P04629 33-796 G667C): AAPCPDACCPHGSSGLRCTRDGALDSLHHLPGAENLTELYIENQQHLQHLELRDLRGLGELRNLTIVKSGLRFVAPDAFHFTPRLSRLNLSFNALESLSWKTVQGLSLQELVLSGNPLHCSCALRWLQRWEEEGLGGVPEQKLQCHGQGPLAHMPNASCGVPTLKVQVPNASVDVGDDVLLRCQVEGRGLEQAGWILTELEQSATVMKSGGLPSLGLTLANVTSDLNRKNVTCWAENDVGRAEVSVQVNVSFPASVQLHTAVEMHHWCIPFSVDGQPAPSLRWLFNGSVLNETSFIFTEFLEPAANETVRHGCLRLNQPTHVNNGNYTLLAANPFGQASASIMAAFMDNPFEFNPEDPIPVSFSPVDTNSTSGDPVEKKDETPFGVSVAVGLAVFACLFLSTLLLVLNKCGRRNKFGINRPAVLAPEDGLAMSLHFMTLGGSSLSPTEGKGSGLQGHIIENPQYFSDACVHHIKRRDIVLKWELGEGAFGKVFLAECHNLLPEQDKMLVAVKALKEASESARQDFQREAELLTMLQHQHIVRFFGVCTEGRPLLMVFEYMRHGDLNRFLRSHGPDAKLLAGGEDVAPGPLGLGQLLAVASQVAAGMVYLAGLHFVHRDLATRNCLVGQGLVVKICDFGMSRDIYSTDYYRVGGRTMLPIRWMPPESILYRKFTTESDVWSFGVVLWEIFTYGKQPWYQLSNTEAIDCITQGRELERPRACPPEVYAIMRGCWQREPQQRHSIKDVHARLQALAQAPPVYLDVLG
TrkC F617L, sequence (Q16288 32-839 S70N/F617L): as the sequence (Q16288 32-839 S70N) above, with F586L counted along it
TrkC G623R, sequence (Q16288 32-839 S70N/G623R): as the sequence (Q16288 32-839 S70N) above, with G592R counted along it
TrkA F589L, sequence (P04629 33-796 F589L): as the sequence (P04629 33-796 G667C) above, with F557L, C635G counted along it
TrkB WT, sequence (Q16620 32-822): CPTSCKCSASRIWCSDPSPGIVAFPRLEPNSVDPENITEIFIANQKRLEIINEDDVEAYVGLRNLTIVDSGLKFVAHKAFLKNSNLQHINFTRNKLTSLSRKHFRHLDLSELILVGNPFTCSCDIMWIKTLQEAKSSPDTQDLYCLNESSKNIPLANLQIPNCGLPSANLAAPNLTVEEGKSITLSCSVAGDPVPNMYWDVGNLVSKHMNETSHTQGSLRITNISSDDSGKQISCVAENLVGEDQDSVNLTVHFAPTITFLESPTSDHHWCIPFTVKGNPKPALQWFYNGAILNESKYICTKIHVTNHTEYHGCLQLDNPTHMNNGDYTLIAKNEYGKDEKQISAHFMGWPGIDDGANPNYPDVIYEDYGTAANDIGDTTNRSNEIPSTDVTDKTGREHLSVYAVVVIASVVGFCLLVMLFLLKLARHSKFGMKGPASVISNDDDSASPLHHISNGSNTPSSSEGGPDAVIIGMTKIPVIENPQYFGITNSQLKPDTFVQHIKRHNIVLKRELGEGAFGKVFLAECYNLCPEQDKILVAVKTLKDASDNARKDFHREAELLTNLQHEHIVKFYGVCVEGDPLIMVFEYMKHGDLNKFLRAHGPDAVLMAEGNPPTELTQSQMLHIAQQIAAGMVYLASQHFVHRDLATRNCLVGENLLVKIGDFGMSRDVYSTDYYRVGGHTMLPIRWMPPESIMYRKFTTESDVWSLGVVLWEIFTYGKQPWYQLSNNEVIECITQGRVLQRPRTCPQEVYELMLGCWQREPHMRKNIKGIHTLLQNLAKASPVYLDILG
TrkA G595R, sequence (P04629 33-796 G595R): as the sequence (P04629 33-796 G667C) above, with G563R, C635G counted along it
TrkB G623R, sequence (Q16620 32-822 G623R): as the sequence (Q16620 32-822) above, with G592R counted along it
TrkA V573M, sequence (P04629 33-796 V573M): as the sequence (P04629 33-796 G667C) above, with V541M, C635G counted along it
TrkA G667S, sequence (P04629 33-796 G667S): as the sequence (P04629 33-796 G667C) above, with C635S counted along it
TrkA WT, sequence (P04629 33-796): as the sequence (P04629 33-796 G667C) above, with C635G counted along it

Structure (SMILES) | IC50 (TrkA WT) | IC50 (TrkA V573M) | IC50 (TrkC G623R) | IC50 (TrkB WT) | IC50 (TrkA G595R) | IC50 (TrkA G667S) | IC50 (TrkA G667C) | IC50 (TrkC F617L) | IC50 (TrkB G623R) | IC50 (TrkA F589L) | IC50 (TrkC WT) | resistance of cancer cells having a TRIM24-NTRK2 point mutation (percent of control, FIG. 10) [1] | resistance of cancer cells having a MPRIP-NTRK1 point mutation (POC, FIG. 4) ([2]; Example 1, F600L, Y676S) | resistance of cancer cells having a MPRIP-NTRK1 point mutation (percent of control, FIG. 7) ([2]; Example 3) | TRKA and ERK1/2 activation, sensitivity to inhibition (FIG. 8) ([3]; NIH3T3 cells expressing MPRIP-NTRK1 V573M, F589L or G667S fusions) | TRKA and ERK1/2 activation, sensitivity to inhibition (FIG. 8) ([3]; NIH3T3 cells expressing MPRIP-NTRK1 WT fusion) | TRKB and ERK1/2 activation, sensitivity to inhibition (FIG. 11) ([4]; NIH3T3 cells expressing TRIM24-NTRK2 V601G, G623S or R630K fusions) | TRKB and ERK1/2 activation, sensitivity to inhibition (FIG. 11) ([4]; NIH3T3 cells expressing TRIM24-NTRK2 WT fusion)
O=C(Nc1cnn2ccc(N3CCC[C@@H]3c3cc(F)ccc3F)nc12)N1CC[C@H](O)C1 [(S)—N-(5-((R)-2-(2,5-difluorophenyl)pyrrolidin-1-yl)pyrazolo[1,5-a]pyrimidin-3-yl)-3-hydroxypyrrolidine-1-carboxamide sulfate] |  |  |  |  |  |  |  |  |  |  |  | increased resistance | increased resistance | increased resistance | resistant | sensitive | resistant | sensitive
O=C(Nc1cnn2ccc(N3CCC[C@@H]3c3cccc(F)c3)nc12)N1CC(O)C1 [Compound 11, (R)-N-(5-(2-(3-fluorophenyl)pyrrolidin-1-yl)pyrazolo[1,5-a]pyrimidin-3-yl)-3-hydroxyazetidine-1-carboxamide] | 6.9 nM | 1200 nM | 446 nM | 19 nM | 561 nM | 275 nM | 830 nM | 476 nM | 671 nM | 1080 nM | 4.4 nM |  |  |  |  |  |  | 
CN(C)C(=O)Nc1cnn2ccc(N3CCC[C@@H]3c3cc(F)ccc3F)nc12 [Compound 8, (R)-3-(5-(2-(2,5-difluorophenyl)pyrrolidin-1-yl)pyrazolo[1,5-a]pyrimidin-3-yl)-1,1-dimethylurea] | 0.9 nM | 129 nM | 54.9 nM | 5 nM | 49.6 nM | 19.7 nM | 84.2 nM | 67.1 nM | 64.6 nM | 154 nM | < 2.5 nM |  |  |  |  |  |  | 
CC1(O)CN(C(=O)Nc2cnn3ccc(N4CCC[C@@H]4c4cc(F)ccc4Cl)nc23)C1 [Compound 10, (R)-N-(5-(2-(2-chloro-5-fluorophenyl)pyrrolidin-1-yl)pyrazolo[1,5-a]pyrimidin-3-yl)-3-hydroxy-3-methylazetidine-1-carboxamide] | 0.9 nM | 105 nM | 101 nM | 6.5 nM | 107 nM | 27 nM | 89.2 nM | 80.1 nM | 150 nM | 103 nM | < 2.5 nM |  |  |  |  |  |  | 

Continued, in another order:

IC50 (TrkA WT) | IC50 (TrkA V573M) | IC50 (TrkC G623R) | IC50 (TrkB WT) | IC50 (TrkA G595R) | IC50 (TrkA G667S) | IC50 (TrkA G667C) | IC50 (TrkC F617L) | IC50 (TrkB G623R) | IC50 (TrkA F589L) | IC50 (TrkC WT) | Structure (SMILES) | resistance of cancer cells having a TRIM24-NTRK2 point mutation (percent of control, FIG. 10) [1] | resistance of cancer cells having a MPRIP-NTRK1 point mutation (POC, FIG. 4) ([2]; Example 1, F600L, Y676S) | resistance of cancer cells having a MPRIP-NTRK1 point mutation (percent of control, FIG. 7) ([2]; Example 3) | TRKA and ERK1/2 activation, sensitivity to inhibition (FIG. 8) ([3]; NIH3T3 cells expressing MPRIP-NTRK1 V573M, F589L or G667S fusions) | TRKA and ERK1/2 activation, sensitivity to inhibition (FIG. 8) ([3]; NIH3T3 cells expressing MPRIP-NTRK1 WT fusion) | TRKB and ERK1/2 activation, sensitivity to inhibition (FIG. 11) ([4]; NIH3T3 cells expressing TRIM24-NTRK2 V601G, G623S or R630K fusions) | TRKB and ERK1/2 activation, sensitivity to inhibition (FIG. 11) ([4]; NIH3T3 cells expressing TRIM24-NTRK2 WT fusion)
0.5 nM | < 5 nM | 1.8 nM | 4.4 nM | 1.2 nM | 0.3 nM | 0.9 nM | 5.1 nM | 1 nM | 1.1 nM | < 2.5 nM | O=C1NCCCOc2ccc(F)cc2[C@H]2CCCN2c2ccn3ncc1c3n2 [Compound 19, (6R)-9-fluoro-13-oxa-2,17,21,22,25-pentaazapentacyclo[17.5.2.0^2,6.0^7,12.0^22,26] hexacosa-1(25),7,9,11,19(26),20,23-heptaen-18-one] |  |  |  |  |  |  | 
< 0.5 nM | < 5 nM | 1.8 nM | 3.6 nM | 1.5 nM | 0.7 nM | 2.6 nM | < 5 nM | 1.1 nM | 2.1 nM | < 2.5 nM | O=C1NC[C@@H](O)COc2ncc(F)cc2[C@H]2CCCN2c2ccn3ncc1c3n2 [Compound 17, (6R,15R)-9-fluoro-15-hydroxy-13-oxa-2,11,17,21,22,25-hexaazapentacyclo-[17.5.2.0^2,6.0^7,12.0^22,26]-hexacosa-1(25), 7,9,11,19(26),20,23-heptaen-18-one] |  |  |  |  |  |  | 
0.5 nM | 38.3 nM | 4.5 nM | 4.7 nM | 3.3 nM | 4.7 nM | 22.3 nM | 61.9 nM | 4.2 nM | 86.8 nM | < 2.5 nM | C[C@H]1CNC(=O)c2cnn3ccc(nc23)N2CCC[C@@H]2c2cc(F)cn(c2=O)C1 [Compound 24, (6R,13S)-9-fluoro-13-methyl-2,11,15, 19,20,23-hexaazapentacyclo [15.5.2.^17,11.0^2,6.0^20,24]pentacosa-1(23),7,9,17(24),18,21-hexaene-16,25-dione] |  |  |  |  |  |  | 
0.6 nM | 29.1 nM | 7.8 nM | 5.6 nM | 7.3 nM | 8.4 nM | 22.2 nM | 48.5 nM | 12.4 nM | 66.3 nM | < 2.5 nM | CC(=O)N1CCOc2ccc(F)cc2[C@H]2CCCN2c2ccn3ncc(c3n2)C1 [Compound 21, 1-[(6R)-9-fluoro-13-oxa-2,16,20,21,24-pentaazapentacyclo[16.5.2.0^2,6.0^7,12.0^21,25]pentacosa-1(24),7,9,11,18(25),19,22-heptaen-16-yl]ethan-1-one] |  |  |  |  |  |  | 
< 0.5 nM | < 5 nM | 1.3 nM | 2.9 nM | 0.9 nM | 0.4 nM | 1.1 nM | < 5 nM | 0.9 nM | < 1 nM | < 2.5 nM | O=C1NCCCOc2ncc(F)cc2[C@H]2CCCN2c2ccn3ncc1c3n2 [Compound 16, (6R)-9-fluoro-13-oxa-2,11,17,21,22,25-hexaazapentacyclo[17.5.2.0^2,6.0^7,12.0^22,26]-hexacosa-1(25),7,9,11,19(26),20,23-heptaen-18-one] |  |  |  |  |  |  | 
